Read-outs that look alike come from different tables or passages of the source. Numbered stars: 1 amine (or outer) side, 2 acyl side, 3 side chain; on linkers, the order of the positions; unused ones are H or OH. Square brackets hold non-standard residues; d marks the D form. Side chains are listed from the residue outwards. Peptide text beside a SMILES is read from it. * marks the point of attachment. C20 diacid = O=C(O)CCCCCCCCCCCCCCCCCCC(=O)*; γGlu = O=C(O)[C@H](CCC(=O)[*:2])N[*:1]; AEEA = NCCOCCOCC(=O)O; Aib = CC(C)(N)C(=O)O
Key:
[1] = Turbidity of crude library peptides (absorbance at 600 nm); format: physicochemical; conditions: Physical stability of peptides
Outline: (§1)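 Values reflect mean ThT emission (ex 450, em 480 nm) over 72 h at 40° C, read every 10 min after 5 min shaking at 700 rpm, plus a single initial absorbance at 600 nm for turbidity. Peptides were at 267 μM, pH 4.0 acetate or pH 7.0 phosphate (50 mM), with 4 μM ThT.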

[2] = Fibril formation of crude library peptides (Thioflavin T); format: physicochemical; parameters: key: average ThT fluorescence emission at 480 nm (ex 450 nm), raw units; conditions: Physical stability of peptides
Outline: as §1

GLP1R = GLP1R (Homo sapiens, UniProt P43220); assay: hGLP1R potency, cAMP accumulation in CHO-K1 cells stably overexpressing hGLP1R; format: cell-based; parameters: host or cells: CHO-K1; conditions: for EC50: cAMP accumulation; for SCTR EC50/GLP1R EC50 ratio: cAMP accumulation in CHO-K1 cells; for Selectivity: SCTR EC50/GLP1R EC50 ratio
Outline: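 Potency reflects cAMP accumulation measured by time-resolved fluorescence energy transfer after a 30 min room-temperature stimulation in IBMX-containing (0.5 mM) DPBS with casein. Purified peptides were tested in duplicate over eleven threefold dilutions, and EC50 was obtained from sigmoid concentration-response fitting.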

SCTR = SCTR (Homo sapiens, UniProt P47872); assay: hSCTR potency, cAMP accumulation in CHO-K1 cells stably overexpressing hSCTR; format: cell-based; parameters: alternatively Euroscreen ES-712-AF; FAST-0161L; host or cells: CHO-K1; conditions: cAMP accumulation
Outline: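 Potency reflects cAMP accumulation after 30 min agonist exposure at room temperature in hSCTR-expressing CHO-K1 cells, with 0.5 mM IBMX present to block phosphodiesterase. EC50 was derived by nonlinear regression.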

[3] = CHO-K1 cells overexpressing hGLP1R, read-out: pEC50 hGLPR1 (converted)
[4] = CHO-K1 cells overexpressing hSCTR, read-out: pEC50 hSCTR (converted)
[5] = CHO-K1 cells overexpressing hGLP1R, read-out: hGLP1R pEC50 (converted)
[6] = selectivity for hGLP1R over hSCTR
[7] = CHO-K1 cells overexpressing hSCTR, read-out: hSCTR pEC50 (converted)

Sequence of GLP1R (P43220 24-463): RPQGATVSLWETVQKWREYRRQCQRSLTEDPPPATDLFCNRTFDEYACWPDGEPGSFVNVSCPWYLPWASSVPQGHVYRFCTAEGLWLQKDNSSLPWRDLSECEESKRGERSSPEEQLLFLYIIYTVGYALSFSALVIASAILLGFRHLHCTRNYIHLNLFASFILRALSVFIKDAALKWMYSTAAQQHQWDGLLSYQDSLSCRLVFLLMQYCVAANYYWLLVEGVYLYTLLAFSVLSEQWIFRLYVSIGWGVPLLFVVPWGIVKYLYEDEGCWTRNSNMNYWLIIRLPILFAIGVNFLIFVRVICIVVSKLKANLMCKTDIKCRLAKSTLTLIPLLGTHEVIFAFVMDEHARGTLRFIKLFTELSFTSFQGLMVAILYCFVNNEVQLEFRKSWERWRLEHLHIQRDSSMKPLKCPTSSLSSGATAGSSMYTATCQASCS
Sequence of SCTR (P47872 23-440): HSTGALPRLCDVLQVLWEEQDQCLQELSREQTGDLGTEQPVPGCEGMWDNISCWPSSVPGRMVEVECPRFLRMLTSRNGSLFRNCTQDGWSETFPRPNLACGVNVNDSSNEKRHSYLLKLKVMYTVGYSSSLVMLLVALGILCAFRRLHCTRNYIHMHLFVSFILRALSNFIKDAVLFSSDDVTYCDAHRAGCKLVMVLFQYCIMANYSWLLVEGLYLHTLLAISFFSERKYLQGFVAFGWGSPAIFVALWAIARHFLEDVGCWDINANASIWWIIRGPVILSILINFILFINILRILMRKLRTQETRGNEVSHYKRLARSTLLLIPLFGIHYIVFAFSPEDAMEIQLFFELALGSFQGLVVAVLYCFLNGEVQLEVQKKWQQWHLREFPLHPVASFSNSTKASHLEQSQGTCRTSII

Turbidity (pH 7) [1]	Fibril formation [2]	EC50 (GLP1R; CHO-K1 cells stably overexpressing hGLP1R, read-out: hGLP1R potency (pEC50) (converted))	SCTR EC50/GLP1R EC50 ratio (GLP1R; selectivity ratio, hSCTR vs hGLP1R)	EC50 (SCTR; CHO-K1 cells stably overexpressing hSCTR, read-out: hSCTR potency (pEC50) (converted))	Selectivity (GLP1R)	EC50 (GLP1R; [3])	EC50 (SCTR; [4])	EC50 (GLP1R; [5])	SCTR EC50/GLP1R EC50 ratio (GLP1R; [6])	EC50 (SCTR; [7])	SMILES
0.33	257659	0.0251 nM	185	5.01 nM	–	–	–	–	–	–	CC[C@H](C)[C@H](NC(=O)[C@H](Cc1ccccc1)NC(=O)[C@H](CCCNC(=N)N)NC(=O)[C@H](CCC(N)=O)NC(=O)[C@H](CC(C)C)NC(=O)[C@H](C)NC(=O)[C@H](C)NC(=O)CNC(=O)[C@H](CCC(=O)O)NC(=O)[C@H](CC(C)C)NC(=O)[C@H](CC(C)C)NC(=O)[C@@H](NC(=O)[C@H](CO)NC(=O)[C@H](Cc1ccc(O)cc1)NC(=O)[C@H](CC(=O)O)NC(=O)[C@H](CO)NC(=O)[C@@H](NC(=O)[C@H](Cc1ccccc1)NC(=O)[C@@H](NC(=O)CNC(=O)[C@H](CCC(=O)O)NC(=O)C(C)(C)NC(=O)[C@@H](N)Cc1c[nH]cn1)[C@@H](C)O)[C@@H](C)O)C(C)C)C(=O)N[C@@H](CCC(N)=O)C(=O)N[C@@H](Cc1c[nH]c2ccccc12)C(=O)N[C@@H](CC(C)C)C(=O)N[C@H](C(N)=O)C(C)C [compound 198] (H-H[Aib]EGTFTSDYSVLLEGAALQRFIQWLV-NH2)
0.69	257400	–	–	–	–	–	–	0.0501 nM	4280	200 nM	CC[C@H](C)[C@H](NC(=O)[C@H](Cc1ccccc1)NC(=O)[C@H](CCCNC(=N)N)NC(=O)[C@H](CCC(N)=O)NC(=O)[C@H](CC(C)C)NC(=O)[C@H](C)NC(=O)[C@H](C)NC(=O)CNC(=O)[C@H](CCC(=O)O)NC(=O)[C@H](CC(C)C)NC(=O)[C@H](CC(C)C)NC(=O)[C@H](Cc1ccc(O)cc1)NC(=O)[C@H](CO)NC(=O)[C@@H](NC(=O)[C@H](CC(=O)O)NC(=O)[C@H](CO)NC(=O)[C@@H](NC(=O)[C@H](Cc1ccccc1)NC(=O)[C@@H](NC(=O)CNC(=O)[C@H](CCC(=O)O)NC(=O)C(C)(C)NC(=O)[C@@H](N)Cc1c[nH]cn1)[C@@H](C)O)[C@@H](C)O)C(C)C)C(=O)N[C@@H](CCC(N)=O)C(=O)N[C@@H](Cc1c[nH]c2ccccc12)C(=O)N[C@@H](CC(C)C)C(=O)N[C@H](C(N)=O)C(C)C [compound 181] (H-H[Aib]EGTFTSDVSYLLEGAALQRFIQWLV-NH2)
0.08	3973	–	–	–	–	–	–	0.00398 nM	42442	158 nM	CC(C)C[C@H](NC(=O)[C@H](Cc1ccccc1)NC(=O)[C@H](CCCNC(=N)N)NC(=O)[C@H](CCC(N)=O)NC(=O)[C@@H](NC(=O)C(C)(C)NC(=O)[C@H](C)NC(=O)[C@H](CCC(=O)O)NC(=O)[C@H](CCC(=O)O)NC(=O)[C@H](CCCCNC(=O)COCCOCCNC(=O)COCCOCCNC(=O)CC[C@H](NC(=O)CCCCCCCCCCCCCCCCCCC(=O)O)C(=O)O)NC(=O)[C@H](CC(C)C)NC(=O)[C@H](Cc1ccc(O)cc1)NC(=O)[C@H](CO)NC(=O)[C@@H](NC(=O)[C@H](CC(=O)O)NC(=O)[C@H](CO)NC(=O)[C@@H](NC(=O)[C@H](Cc1ccccc1)NC(=O)[C@@H](NC(=O)CNC(=O)[C@H](CCC(=O)O)NC(=O)C(C)(C)NC(=O)[C@@H](N)Cc1c[nH]cn1)[C@@H](C)O)[C@@H](C)O)C(C)C)C(C)C)C(=O)N[C@@H](CCC(=O)O)C(=O)N[C@@H](Cc1c[nH]cn1)C(=O)N[C@@H](CC(C)C)C(=O)N[C@H](C(N)=O)C(C)C [compound 161] (H-H[Aib]EGTFTSDVSYLK([AEEA-AEEA-γGlu-C20 diacid])EEA[Aib]VQRFLEHLV-NH2)

Further lines, the compound ahead of its results:

SMILES	Turbidity (pH 7) [1]	Fibril formation [2]	EC50 (GLP1R; CHO-K1 cells stably overexpressing hGLP1R, read-out: hGLP1R potency (pEC50) (converted))	SCTR EC50/GLP1R EC50 ratio (GLP1R; selectivity ratio, hSCTR vs hGLP1R)	EC50 (SCTR; CHO-K1 cells stably overexpressing hSCTR, read-out: hSCTR potency (pEC50) (converted))	Selectivity (GLP1R)	EC50 (GLP1R; [3])	EC50 (SCTR; [4])	EC50 (GLP1R; [5])	SCTR EC50/GLP1R EC50 ratio (GLP1R; [6])	EC50 (SCTR; [7])
CC(C)C[C@H](NC(=O)[C@H](CCC(=O)O)NC(=O)[C@H](CCCCNC(=O)COCCOCCNC(=O)COCCOCCNC(=O)CC[C@H](NC(=O)CCCCCCCCCCCCCCCCCCC(=O)O)C(=O)O)NC(=O)[C@H](CC(C)C)NC(=O)[C@H](CCCNC(=N)N)NC(=O)[C@H](CO)NC(=O)[C@@H](NC(=O)[C@H](CC(=O)O)NC(=O)[C@H](CO)NC(=O)[C@@H](NC(=O)[C@H](Cc1ccccc1)NC(=O)[C@@H](NC(=O)CNC(=O)[C@H](CCC(=O)O)NC(=O)C(C)(C)NC(=O)[C@@H](N)Cc1c[nH]cn1)[C@@H](C)O)[C@@H](C)O)C(C)C)C(=O)N[C@@H](C)C(=O)N[C@@H](C)C(=O)N[C@@H](C)C(=O)N[C@@H](CCC(N)=O)C(=O)N[C@@H](CCCNC(=N)N)C(=O)N[C@@H](Cc1ccccc1)C(=O)N[C@@H](CC(C)C)C(=O)N[C@@H](CCC(=O)O)C(=O)N[C@@H](Cc1c[nH]cn1)C(=O)N[C@@H](CC(C)C)C(=O)N[C@H](C(N)=O)C(C)C [compound 9] (H-H[Aib]EGTFTSDVSRLK([AEEA-AEEA-γGlu-C20 diacid])ELAAAQRFLEHLV-NH2)	0.08	10378	–	–	–	13668	0.0631 nM	1000 nM	–	–	–
CC(C)C[C@H](NC(=O)[C@H](Cc1ccccc1)NC(=O)[C@H](CCCNC(=N)N)NC(=O)[C@H](CCC(N)=O)NC(=O)[C@@H](NC(=O)[C@H](C)NC(=O)[C@H](C)NC(=O)[C@H](CCC(=O)O)NC(=O)[C@H](CCC(=O)O)NC(=O)[C@H](CCCCNC(=O)COCCOCCNC(=O)COCCOCCNC(=O)CC[C@H](NC(=O)CCCCCCCCCCCCCCCCCCC(=O)O)C(=O)O)NC(=O)[C@H](CC(C)C)NC(=O)[C@H](Cc1ccc(O)cc1)NC(=O)[C@H](CO)NC(=O)[C@@H](NC(=O)[C@H](CC(=O)O)NC(=O)[C@H](CO)NC(=O)[C@@H](NC(=O)[C@H](Cc1ccccc1)NC(=O)[C@@H](NC(=O)CNC(=O)[C@H](CCC(=O)O)NC(=O)C(C)(C)NC(=O)[C@@H](N)Cc1c[nH]cn1)[C@@H](C)O)[C@@H](C)O)C(C)C)[C@@H](C)O)C(=O)N[C@@H](CCC(=O)O)C(=O)N[C@@H](Cc1c[nH]cn1)C(=O)N[C@@H](CC(C)C)C(=O)N[C@H](C(N)=O)C(C)C [compound 30] (H-H[Aib]EGTFTSDVSYLK([AEEA-AEEA-γGlu-C20 diacid])EEAATQRFLEHLV-NH2)	0.08	6899	–	–	–	22387	0.0126 nM	251 nM	–	–	–
CC[C@H](C)[C@H](NC(=O)[C@H](Cc1ccccc1)NC(=O)[C@H](CCCNC(=N)N)NC(=O)[C@H](CCC(N)=O)NC(=O)[C@H](CC(C)C)NC(=O)[C@H](C)NC(=O)[C@H](C)NC(=O)CNC(=O)[C@H](CCC(=O)O)NC(=O)[C@H](CC(C)C)NC(=O)[C@H](CC(C)C)NC(=O)[C@H](Cc1ccc(O)cc1)NC(=O)[C@H](CO)NC(=O)C(C)(C)NC(=O)[C@H](CC(=O)O)NC(=O)[C@H](CO)NC(=O)[C@@H](NC(=O)[C@H](Cc1ccccc1)NC(=O)[C@@H](NC(=O)CNC(=O)[C@H](CCC(=O)O)NC(=O)C(C)(C)NC(=O)[C@@H](N)Cc1c[nH]cn1)[C@@H](C)O)[C@@H](C)O)C(=O)N[C@@H](CCC(N)=O)C(=O)N[C@@H](Cc1c[nH]c2ccccc12)C(=O)N[C@@H](CC(C)C)C(=O)N[C@H](C(N)=O)C(C)C [compound 106] (H-H[Aib]EGTFTSD[Aib]SYLLEGAALQRFIQWLV-NH2)	0.74	11918	–	–	–	–	–	–	0.0158 nM	100392	1580 nM
CC[C@H](C)[C@H](NC(=O)[C@H](Cc1ccccc1)NC(=O)[C@H](CCCNC(=N)N)NC(=O)[C@H](CCC(N)=O)NC(=O)[C@H](CC(C)C)NC(=O)[C@H](C)NC(=O)[C@H](C)NC(=O)CNC(=O)[C@H](CCC(=O)O)NC(=O)[C@H](CC(C)C)NC(=O)[C@H](CC(C)C)NC(=O)[C@H](Cc1c[nH]c2ccccc12)NC(=O)[C@H](CO)NC(=O)[C@@H](NC(=O)[C@H](CC(=O)O)NC(=O)[C@H](CO)NC(=O)[C@@H](NC(=O)[C@H](Cc1ccccc1)NC(=O)[C@@H](NC(=O)CNC(=O)[C@H](CCC(=O)O)NC(=O)C(C)(C)NC(=O)[C@@H](N)Cc1c[nH]cn1)[C@@H](C)O)[C@@H](C)O)[C@@H](C)CC)C(=O)N[C@@H](CCC(N)=O)C(=O)N[C@@H](Cc1c[nH]c2ccccc12)C(=O)N[C@@H](CC(C)C)C(=O)N[C@H](C(N)=O)C(C)C [compound 118] (H-H[Aib]EGTFTSDISWLLEGAALQRFIQWLV-NH2)	0.63	143374	–	–	–	–	–	–	0.0631 nM	1256	79.4 nM

Reference: patent publication US20260201008A1, “SECRETIN-DERIVED GLP1R SELECTIVE AGONISTS” (GUBRA A/S, priority 2023, published 2026)
